Data set [1] deals with Mycobacterium tuberculosis wild-type H37Rv strain. The note with it: cited from earlier work; for pMIC (pMICExp): –Log of MIC on M. tuberculosis.
For data set [2], the system named is Mycobacterium tuberculosis wild-type H37Rv strain (ATCC 27294). Kind of data set: microplate Alamar blue assay (MABA), anti-mycobacterial activity. It counts as cell-based. A general note: Alamar Blue is a resazurin reagent that responds to reducing activity.
Data set [3] is described as follows: in vitro. The note with it: mouse.
In data set [4] the test system is macrophage cell line J774 (ATCC TIB-67).
The nature of data set [5]: Mosmann's MTT cell viability (cytotoxicity) assay. The note with it: mouse.
The test system of data set [6] is MTB wild-type H37Rv strain. On the set-up: method as in PMID 15591164. The note with it: cited from earlier work.
Data set [7] concerns MTB MDR strains. The note with it: cited from earlier work.
Where [8] appears, read: M. tuberculosis H37Rv, MABA, read-out: MIC.
Setting [9] is: series D, –Log of MIC of Table 1, read-out: pMIC (pMICExp) (converted).

In brackets after ≈: the same amount, converted by molar mass. Read-outs that look alike come from different tables or passages of the source.

Turning to `ClCCNc1ccnc2cc(Cl)ccc12` [A01], the “pMIC (pMICExp)” value in data set [1] (series A) is 4.29.

For `[N-]=[N+]=NCCNc1ccnc2cc(Cl)ccc12` [A02], the “pMIC (pMICExp)” value in data set [1] (series A) is 3.69.

For `CCCNCCNc1ccnc2cc(Cl)ccc12` [A03], the “pMIC (pMICExp)” value in data set [1] (series A) is 3.42.

With `Clc1ccc2c(NCCNc3ccccc3)ccnc2c1` [A05], the “pMIC (pMICExp)” value in data set [1] (series A) is 3.77.

Turning to `NCCCCCCNc1ccnc2cc(Cl)ccc12` [A06], the “pMIC (pMICExp)” value in data set [1] (series A) was 4.05.

In the case of `NCCCCCCCCNc1ccnc2cc(Cl)ccc12` [A07], in data set [1] (series A), the “pMIC (pMICExp)” value is reported as 4.69.

On to `NCCCCCCCCCCNc1ccnc2cc(Cl)ccc12` [A08], for which, in data set [1] (series A lead, H37Rv), the MIC was 9.3 µM (≈ 3.11 µg/mL). The “pMIC (pMICExp)” value in data set [1] (series A) is 5.03.

With `CNc1ccnc2cc(Cl)ccc12` [A09], in data set [1] (series A), the “pMIC (pMICExp)” value is reported as 3.28.

Regarding `CCCNc1ccnc2cc(Cl)ccc12` [A10], the “pMIC (pMICExp)” value in data set [1] (series A) is reported as 3.64.

For the compound `CC(C)Nc1ccnc2cc(Cl)ccc12` [A11], the “pMIC (pMICExp)” value in data set [1] (series A) is on record as 3.64.

Regarding `CCCCNc1ccnc2cc(Cl)ccc12` [A12], in data set [1] (series A), the “pMIC (pMICExp)” value is given as 4.27.

For the compound `ClCCCNc1ccnc2cc(Cl)ccc12` [A13], the “pMIC (pMICExp)” value in data set [1] (series A) is recorded as 3.71.

Take `Clc1ccc2c(N/N=C/c3cccc(Br)c3)ccnc2c1` [B04]: the “pMIC (pMICExp)” value in data set [1] (series B) is 5.06.

For the compound `Clc1ccc2c(N/N=C/c3ccc(Br)cc3)ccnc2c1` [B05], in data set [1] (series B), the “pMIC (pMICExp)” value is 5.16.

As to `O=[N+]([O-])c1ccc(/C=N/Nc2ccnc3cc(Cl)ccc23)o1` [C01], in data set [1] (series C), the “pMIC (pMICExp)” value is on record as 5.10.

Take `Clc1ccc2c(N/N=C/c3ccco3)ccnc2c1` [C02]: the “pMIC (pMICExp)” value in data set [1] (series C) was 4.94.

Regarding `O=[N+]([O-])c1ccc(/C=N/Nc2ccnc3cc(Cl)ccc23)s1` [C03], the “pMIC (pMICExp)” value in data set [1] (series C) was 5.43.

Turning to `Clc1ccc2c(N/N=C/c3cccs3)ccnc2c1` [C04], the “pMIC (pMICExp)” value in data set [1] (series C) is recorded as 4.96.

In the case of `Clc1ccc2c(N/N=C/c3ccc[nH]3)ccnc2c1` [C05], the “pMIC (pMICExp)” value in data set [1] (series C) is listed as 4.94.

`Clc1ccc2c(N/N=C/c3ccn[nH]3)ccnc2c1` [C06]: the “pMIC (pMICExp)” value in data set [1] (series C) is listed as 4.94.

As to `Clc1ccc2c(N/N=C/c3ccccn3)ccnc2c1` [C07], the “pMIC (pMICExp)” value in data set [1] (series C) is listed as 4.35.

For the compound `Clc1ccc2c(N/N=C/c3c(Cl)cccc3Cl)ccnc2c1` [D01], the MIC in data set [2] (setting [8]) is 143 µM (≈ 50 µg/mL). For the same compound, in data set [2] (setting [9]), the MIC is 141 µM. In data set [3], this compound came in with a viability at 48 h, 2.5 µg/mL of 100%; a viability at 48 h, 25 µg/mL of 90%; a viability at 48 h, 100 µg/mL of 86%. For the same compound, the “Cell Viability (%)/Dose (µg/mL) 2.5” value in data set [4] is recorded as “did not show a significant cytotoxic profile”.

Turning to `Oc1cccc(/C=N/Nc2ccnc3cc(Cl)ccc23)c1O` [D02], in data set [2] (setting [8]), the MIC turned out to be 79.7 µM (≈ 25 µg/mL). In addition, the MIC in data set [2] (setting [9]) is 79.4 µM. In data set [3], this compound displayed a viability at 48 h, 2.5 µg/mL of 83%; a viability at 48 h, 25 µg/mL of 40%; a viability at 48 h, 100 µg/mL of 83%.

`Oc1ccc(C=NNc2ccnc3cc(Cl)ccc23)cc1O` [D03]: in data set [2] (setting [8]), the MIC was determined as 319 µM (≈ 100 µg/mL). Besides, the MIC in data set [2] (setting [9]) is 316 µM. In data set [3], this compound registered a viability at 48 h, 2.5 µg/mL of 78%; a viability at 48 h, 25 µg/mL of 35%; a viability at 48 h, 100 µg/mL of 72%.

As for `Oc1ccc(O)c(/C=N/Nc2ccnc3cc(Cl)ccc23)c1` [D04], the MIC in data set [2] (setting [8]) is 79.7 µM (≈ 25 µg/mL). Moreover, the MIC in data set [2] (setting [9]) is 79.4 µM. In data set [3], this compound registered a viability at 48 h, 2.5 µg/mL of 100%; a viability at 48 h, 25 µg/mL of 100%; a viability at 48 h, 100 µg/mL of 70%. Moreover, in data set [4], the “Cell Viability (%)/Dose (µg/mL) 2.5” value is given as “did not show a significant cytotoxic profile”.

As to `COc1cccc(/C=N/Nc2ccnc3cc(Cl)ccc23)c1OC` [D05], in data set [2] (setting [8]), the MIC was determined as 7.3 µM (≈ 2.5 µg/mL). Further, the MIC in data set [2] (setting [9]) was 7.24 µM. Further, in data set [3], the viability at 48 h, 2.5 µg/mL is 98%; the viability at 48 h, 25 µg/mL was 97%; the viability at 48 h, 100 µg/mL worked out at 85%. Also, the “Cell Viability (%)/Dose (µg/mL) 2.5” value in data set [4] is given as “did not show a significant cytotoxic profile”.

On to `COc1ccc(/C=N/Nc2ccnc3cc(Cl)ccc23)cc1OC` [D06], for which, in data set [2] (setting [8]), the MIC is 7.3 µM (≈ 2.5 µg/mL). Moreover, the MIC in data set [2] (setting [9]) was 7.24 µM. In data set [3], this compound displayed a viability at 48 h, 2.5 µg/mL of 65%; a viability at 48 h, 25 µg/mL of 8%; a viability at 48 h, 100 µg/mL of 20%.

For `COc1ccc(OC)c(/C=N/Nc2ccnc3cc(Cl)ccc23)c1` [D07], the MIC in data set [2] (setting [8]) was found to be 18.3 µM (≈ 6.25 µg/mL). The MIC in data set [2] (read-out: pMIC (pMICExp)) was 18.2 µM (≈ 6.22 µg/mL). In data set [3], this compound came in with a viability at 48 h, 2.5 µg/mL of 40%; a viability at 48 h, 25 µg/mL of 22%; a viability at 48 h, 100 µg/mL of 47%.

As to `COc1cc(/C=N/Nc2ccnc3cc(Cl)ccc23)cc(OC)c1OC` [D08], in data set [2] (setting [8]), the MIC was found to be 16.8 µM (≈ 6.25 µg/mL). Further, in data set [2] (setting [9]), the MIC was 17 µM. Also, in data set [3], the viability at 48 h, 2.5 µg/mL is 93%; the viability at 48 h, 25 µg/mL came out at 90%; the viability at 48 h, 100 µg/mL was 69%.

As for `COc1ccc(C=NNc2ccnc3cc(Cl)ccc23)c(Cl)c1O` [D09], the MIC in data set [2] (setting [8]) came to 17.3 µM (≈ 6.27 µg/mL). Moreover, the MIC in data set [2] (setting [9]) was 16.2 µM. Moreover, in data set [3], the viability at 48 h, 2.5 µg/mL came out at 80%; the viability at 48 h, 25 µg/mL worked out at 55%; the viability at 48 h, 100 µg/mL is 48%.

With `CC[C@@H](CO)NCCN[C@@H](CC)CO` [EMB, ethambutol], the MIC in data set [2] (setting [8]) came to 15.3 µM (≈ 3.13 µg/mL). In data set [5], this compound displayed a viability at 48 h, 2.5 µg/mL of 100%; a viability at 48 h, 25 µg/mL of 93%; a viability at 48 h, 100 µg/mL of 82%.

Take `COc1nc2ccc(Br)cc2cc1[C@@H](c1ccccc1)[C@@](O)(CCN(C)C)c1cccc2ccccc12` [bedaquiline]: the values for the MIC in data set [6] and in data set [7] were at most 0.1 µM and at most 0.5 µM, respectively.

The term viability denotes a per cent measure of how many cells are alive, often set against a control.

The record behind these values is paper PMC5490409, “Anti-Mycobacterial Evaluation of 7-Chloro-4-Aminoquinolines and Hologram Quantitative Structure–Activity Relationship (HQSAR) Modeling of Amino–Imino Tautomers” (Pharmaceuticals, 2017).
